Structures can show the parent of a compound that is named as a salt. Where two headings read alike, the source gives them in different places.
Experiments:
JAK1 = target: T1, JAK1 (Homo sapiens, UniProt P23458); assay: JAK1 enzyme inhibition test (LANCE method); format: biochemical; conditions: for inhibition at 1 µM: test compound 1 μM, read-out: Inhibitory rate (%) JAK1 1 μM; for inhibition at 10 µM: read-out: Inhibitory rate (%) JAK1 10 μM
T1 construct: purchased Invitrogen
Method in brief: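 TR-FRET (LANCE) kinase assay using JAK1 at 187.5 ng/mL, ULight-JAK1 peptide at 300 nM and ATP at 150 μM, given as solution concentrations before mixing. Buffer was 50 mM HEPES pH 7.5 with 10 mM MgCl2 and 2 mM DTT, and the reaction ran 1 h at room temperature. Eu anti-phosphotyrosine signal at 665 nm was expressed relative to a no-enzyme well, taken as 100% inhibition.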

Tyk2 = target: T2, Tyk2 (Homo sapiens, UniProt P29597); assay: Tyk2 enzyme inhibition test (LANCE method); format: biochemical; conditions: for inhibition at 1 µM: test compound 1 μM, read-out: Inhibitory rate (%) Tyk2 1 μM; for inhibition at 10 µM: test compound 10 μM, read-out: Inhibitory rate (%) Tyk2 10 μM
T2 construct: purchased Invitrogen
Method in brief: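 Recombinant Tyk2 (375 ng/mL stock) with ULight-JAK1 peptide (300 nM stock) and ATP (30 μM stock) in HEPES pH 7.5/MgCl2/EGTA/DTT buffer, 1 h at room temperature. Stopped with EDTA plus Eu-anti-phosphotyrosine antibody; TR-FRET read at 665 nm after 1 h. No-enzyme wells define 100% inhibition.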

[1] = test compound 10 μM (Ex. 182-220), beside Tyk2 1 μM

T1 sequence (P23458 whole entry): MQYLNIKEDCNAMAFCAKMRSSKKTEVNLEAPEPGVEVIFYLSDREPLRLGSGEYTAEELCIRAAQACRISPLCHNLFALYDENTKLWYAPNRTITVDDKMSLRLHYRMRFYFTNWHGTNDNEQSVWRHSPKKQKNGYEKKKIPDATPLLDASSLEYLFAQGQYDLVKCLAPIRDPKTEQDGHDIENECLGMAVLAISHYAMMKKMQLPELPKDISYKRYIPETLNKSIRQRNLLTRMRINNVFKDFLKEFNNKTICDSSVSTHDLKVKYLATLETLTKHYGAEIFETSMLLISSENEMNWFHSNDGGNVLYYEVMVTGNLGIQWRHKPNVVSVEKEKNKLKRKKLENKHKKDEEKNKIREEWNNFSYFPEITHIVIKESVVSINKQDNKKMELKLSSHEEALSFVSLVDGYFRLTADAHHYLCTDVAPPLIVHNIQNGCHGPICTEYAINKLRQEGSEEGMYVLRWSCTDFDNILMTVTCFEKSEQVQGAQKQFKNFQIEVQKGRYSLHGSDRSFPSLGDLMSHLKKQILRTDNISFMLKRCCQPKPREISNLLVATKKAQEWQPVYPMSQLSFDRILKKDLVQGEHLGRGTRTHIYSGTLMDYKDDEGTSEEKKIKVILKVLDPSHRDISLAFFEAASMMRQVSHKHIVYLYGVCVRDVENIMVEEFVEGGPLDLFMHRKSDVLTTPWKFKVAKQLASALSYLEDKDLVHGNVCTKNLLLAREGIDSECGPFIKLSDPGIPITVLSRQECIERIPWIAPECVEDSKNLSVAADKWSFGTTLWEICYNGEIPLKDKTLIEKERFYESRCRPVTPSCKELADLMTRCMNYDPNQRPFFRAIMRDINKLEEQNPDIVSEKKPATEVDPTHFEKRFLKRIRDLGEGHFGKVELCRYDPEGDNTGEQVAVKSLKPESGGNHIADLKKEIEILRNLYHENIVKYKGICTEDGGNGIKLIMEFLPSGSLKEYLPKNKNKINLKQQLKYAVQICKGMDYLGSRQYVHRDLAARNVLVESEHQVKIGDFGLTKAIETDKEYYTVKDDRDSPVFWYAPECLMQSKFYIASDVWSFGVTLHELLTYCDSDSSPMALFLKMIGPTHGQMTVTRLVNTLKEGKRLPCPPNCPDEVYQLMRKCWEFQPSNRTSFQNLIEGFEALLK
T2 sequence (P29597 whole entry): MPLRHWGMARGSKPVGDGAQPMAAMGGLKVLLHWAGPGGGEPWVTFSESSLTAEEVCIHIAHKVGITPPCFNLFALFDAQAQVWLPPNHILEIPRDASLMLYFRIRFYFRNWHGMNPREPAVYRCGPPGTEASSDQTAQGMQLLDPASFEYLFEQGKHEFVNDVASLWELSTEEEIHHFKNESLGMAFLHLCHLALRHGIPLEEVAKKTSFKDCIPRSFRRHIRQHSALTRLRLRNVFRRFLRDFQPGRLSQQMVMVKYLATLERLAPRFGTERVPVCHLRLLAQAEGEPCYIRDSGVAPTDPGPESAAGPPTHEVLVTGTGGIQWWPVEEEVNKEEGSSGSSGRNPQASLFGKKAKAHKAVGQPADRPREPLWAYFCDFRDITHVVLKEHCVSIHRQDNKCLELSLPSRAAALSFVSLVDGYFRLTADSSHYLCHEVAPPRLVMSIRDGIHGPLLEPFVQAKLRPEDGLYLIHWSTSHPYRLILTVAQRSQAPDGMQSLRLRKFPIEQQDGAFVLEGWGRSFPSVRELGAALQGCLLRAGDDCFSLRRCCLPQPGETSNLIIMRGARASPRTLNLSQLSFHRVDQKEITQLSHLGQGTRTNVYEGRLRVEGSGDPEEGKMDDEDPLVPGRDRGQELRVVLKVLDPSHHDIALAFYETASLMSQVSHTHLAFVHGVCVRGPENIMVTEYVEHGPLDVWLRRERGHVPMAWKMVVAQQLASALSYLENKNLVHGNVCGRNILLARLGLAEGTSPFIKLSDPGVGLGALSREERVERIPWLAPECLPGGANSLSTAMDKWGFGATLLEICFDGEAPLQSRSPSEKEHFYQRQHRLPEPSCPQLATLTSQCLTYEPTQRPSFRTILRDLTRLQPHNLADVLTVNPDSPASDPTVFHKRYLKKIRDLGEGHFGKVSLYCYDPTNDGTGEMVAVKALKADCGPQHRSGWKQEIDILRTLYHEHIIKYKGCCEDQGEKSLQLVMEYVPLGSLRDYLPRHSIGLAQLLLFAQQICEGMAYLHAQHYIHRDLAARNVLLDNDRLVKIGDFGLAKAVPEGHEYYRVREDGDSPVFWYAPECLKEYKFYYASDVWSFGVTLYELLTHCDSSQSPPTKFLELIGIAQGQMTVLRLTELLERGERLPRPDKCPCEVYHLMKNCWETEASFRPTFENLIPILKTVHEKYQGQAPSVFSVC

Row | Structure (SMILES) | inhibition at 1 µM (JAK1) [%] | inhibition at 1 µM (Tyk2) [%] | inhibition at 10 µM (JAK1; [1]) [%] | inhibition at 10 µM (JAK1; test compound 10 μM) [%] | inhibition at 10 µM (Tyk2) [%]
1 | N#CC1(NC(=O)c2cc(-c3nn(-c4c(F)cccc4F)c4c(Cl)c[nH]c(=O)c34)cs2)CC1 [Example 163, 4-(7-chloro-1-(2,6-difluorophenyl)-4-oxo-4,5-dihydro-1H-pyrazolo[4,3-c]pyridin-3-yl)-N-(1-cyanocyclopropyl)thiophene-2-carboxamide] | 98 | 100 | – | – | –
2 | O=c1[nH]cc(Br)c2c1c(-c1ccc(N3CCOCC3)cc1)nn2-c1c(F)cccc1F [Example 218, 7-bromo-1-(2,6-difluorophenyl)-3-(4-(morpholin-4-yl)phenyl)-1,5-dihydro-4H-pyrazolo[4,3-c]pyridin-4-one] | – | 99 | 85 | – | –
3 | NC(=O)Cc1cc(-c2nn(-c3c(F)cccc3F)c3c(Cl)c[nH]c(=O)c23)cs1 [Example 160, 2-(4-(7-chloro-1-(2,6-difluorophenyl)-4-oxo-4,5-dihydro-1H-pyrazolo[4,3-c]pyridin-3-yl)-2-thienyl)acetamide] | 98 | 98 | – | – | –
4 | CN1CCN(c2ccc(-c3nn(-c4c(F)cccc4F)c4c(Cl)c[nH]c(=O)c34)cc2)C1=O [Example 239, 7-chloro-1-(2,6-difluorophenyl)-3-(4-(3-methyl-2-oxoimidazolidin-1-yl)phenyl)-1,5-dihydro-4H-pyrazolo[4,3-c]pyridin-4-one] | 46 | 99 | – | – | –
5 | O=c1[nH]cc(Cl)c2c1c(C1CC1)nn2-c1c(F)cccc1F [Example 208, 7-chloro-3-cyclopropyl-1-(2,6-difluorophenyl)-1,5-dihydro-4H-pyrazolo[4,3-c]pyridin-4-one] | – | – | – | 28 | 83
6 | CNC(=O)c1cc(F)cc(-c2nn(-c3c(F)cccc3F)c3c(Cl)c[nH]c(=O)c23)c1 [Example 273, 3-(7-chloro-1-(2,6-difluorophenyl)-4-oxo-4,5-dihydro-1H-pyrazolo[4,3-c]pyridin-3-yl)-5-fluoro-N-methylbenzamide] | 1 | 71 | – | – | –
7 | O=c1[nH]ccc2c1c(-c1ccc(C3=CCOCC3)cc1)nn2-c1c(F)cccc1F [Example 256, 1-(2,6-difluorophenyl)-3-(4-(3,6-dihydro-2H-pyran-4-yl)phenyl)-1,5-dihydro-4H-pyrazolo[4,3-c]pyridin-4-one] | 92 | 98 | – | – | –
8 | CNC(=O)c1cc(-c2nn(-c3c(F)cccc3F)c3c(Cl)c[nH]c(=O)c23)cs1 [Example 162, 4-(7-chloro-1-(2,6-difluorophenyl)-4-oxo-4,5-dihydro-1H-pyrazolo[4,3-c]pyridin-3-yl)-N-methylthiophene-2-carboxamide] | 99 | 99 | – | – | –
9 | NS(=O)(=O)c1ccc(-c2nn(-c3ccccc3Cl)c3cc[nH]c(=O)c23)cc1 [Example 214, 4-(1-(2-chlorophenyl)-4-oxo-4,5-dihydro-1H-pyrazolo[4,3-c]pyridin-3-yl)benzenesulfonamide] | – | 99 | 99 | – | –
10 | CN(C)Cc1cccc(-c2nn(-c3c(F)cccc3F)c3cc[nH]c(=O)c23)c1 [Example 258, 1-(2,6-difluorophenyl)-3-(3-((dimethylamino)methyl)phenyl)-1,5-dihydro-4H-pyrazolo[4,3-c]pyridin-4-one] | 43 | 88 | – | – | –
11 | NC(=O)Cc1ccc(-c2nn(-c3c(F)cccc3F)c3c(Cl)c[nH]c(=O)c23)cc1 [Example 124, 2-(4-(7-chloro-1-(2,6-difluorophenyl)-4-oxo-4,5-dihydro-1H-pyrazolo[4,3-c]pyridin-3-yl)phenyl)acetamide] | 89 | 98 | – | – | –
12 | O=c1[nH]ccc2c1c(-c1cn[nH]c1)nn2-c1c(F)cccc1F [Example 151, 1-(2,6-difluorophenyl)-3-(1H-pyrazol-4-yl)-1,5-dihydro-4H-pyrazolo[4,3-c]pyridin-4-one] | 98 | 98 | – | – | –
13 | NS(=O)(=O)c1ccc(-c2nn(-c3ccccc3F)c3cc[nH]c(=O)c23)cc1 [Example 213, 4-(1-(2-fluorophenyl)-4-oxo-4,5-dihydro-1H-pyrazolo[4,3-c]pyridin-3-yl)benzenesulfonamide] | – | 99 | 98 | – | –
14 | Cn1cnc2cc(-c3nn(-c4c(F)cccc4F)c4c(Cl)c[nH]c(=O)c34)ccc21 [Example 226, 7-chloro-1-(2,6-difluorophenyl)-3-(1-methyl-1H-benzimidazol-5-yl)-1,5-dihydro-4H-pyrazolo[4,3-c]pyridin-4-one] | 40 | 98 | – | – | –
15 | CC(C)(C)n1nc(-c2ccc(S(N)(=O)=O)cc2)c2c(=O)[nH]ccc21 [Example 86, 4-(1-tert-butyl-4-oxo-4,5-dihydro-1H-pyrazolo[4,3-c]pyridin-3-yl)benzenesulfonamide] | 94 | 85 | – | – | –

The remaining lines, values ahead:

Row | inhibition at 1 µM (JAK1) [%] | inhibition at 1 µM (Tyk2) [%] | inhibition at 10 µM (JAK1; [1]) [%] | inhibition at 10 µM (JAK1; test compound 10 μM) [%] | inhibition at 10 µM (Tyk2) [%] | Structure (SMILES)
16 | 100 | 99 | – | – | – | NS(=O)(=O)c1ccc(-c2nn(C3CCC(O)CC3)c3cc[nH]c(=O)c23)cc1 (stereo not shown) [Example 119, 4-(1-(4-hydroxycyclohexyl)-4-oxo-4,5-dihydro-1H-pyrazolo[4,3-c]pyridin-3-yl)benzenesulfonamide]
17 | 97 | 95 | – | – | – | COC(=O)c1cc(-c2nn(C3CCOCC3)c3cc[nH]c(=O)c23)cs1 [Example 21, methyl 4-(4-oxo-1-(tetrahydro-2H-pyran-4-yl)-4,5-dihydro-1H-pyrazolo[4,3-c]pyridin-3-yl)thiophene-2-carboxylate]
18 | 80 | 96 | – | – | – | N#Cc1c[nH]c(=O)c2c(-c3ccn[nH]3)cn(C3CCCC3)c12 [Example 125, 1-cyclopentyl-4-oxo-3-(1H-pyrazol-5-yl)-4,5-dihydro-1H-pyrrolo[3,2-c]pyridine-7-carbonitrile hydrochloride]
19 | – | – | – | 38 | 49 | O=c1[nH]ccc2c1c(C1=CCCCC1)nn2C1CCCC1 [Example 41, 3-(cyclohex-1-en-1-yl)-1-cyclopentyl-1,5-dihydro-4H-pyrazolo[4,3-c]pyridin-4-one]
20 | 41 | 88 | – | – | – | Cc1ccccc1-c1nn(-c2csc(C(N)=O)c2)c2c(=O)[nH]cc(C#N)c12 [Example 70, 4-(4-cyano-3-(2-methylphenyl)-7-oxo-6,7-dihydro-1H-pyrazolo[3,4-c]pyridin-1-yl)thiophene-2-carboxamide]
21 | 59 | 51 | – | – | – | CNC(=O)c1cc(-c2cn(C3CCCC3)c3c(C(=O)NC)c[nH]c(=O)c23)cs1 [Example 63, 1-cyclopentyl-N-methyl-3-(5-(methylcarbamoyl)-3-thienyl)-4-oxo-4,5-dihydro-1H-pyrrolo[3,2-c]pyridine-7-carboxamide]
22 | 91 | 98 | – | – | – | N#Cc1c[nH]c(=O)c2c(-c3ccsc3)cn(C3CCCC3)c12 [Example 106, 1-cyclopentyl-4-oxo-3-(3-thienyl)-4,5-dihydro-1H-pyrrolo[3,2-c]pyridine-7-carbonitrile]
23 | 77 | 71 | – | – | – | N#CCc1ccc(-c2cn(C3CCOCC3)c3cc[nH]c(=O)c23)cc1 [Example 25, (4-(4-oxo-1-(tetrahydro-2H-pyran-4-yl)-4,5-dihydro-1H-pyrrolo[3,2-c]pyridin-3-yl)phenyl)acetonitrile]
24 | 97 | 98 | – | – | – | N#Cc1cccc(F)c1-n1nc(-c2cn[nH]c2)c2c(=O)[nH]ccc21 [Example 315, 3-fluoro-2-(4-oxo-3-(1H-pyrazol-4-yl)-4,5-dihydro-1H-pyrazolo[4,3-c]pyridin-1-yl)benzonitrile]
25 | 99 | 100 | – | – | – | CCNC(=O)c1cc(-c2cn(C3CCCC3)c3c(C#N)c[nH]c(=O)c23)cs1 [Example 122, 4-(7-cyano-1-cyclopentyl-4-oxo-4,5-dihydro-1H-pyrrolo[3,2-c]pyridin-3-yl)-N-ethylthiophene-2-carboxamide]
26 | 93 | 80 | – | – | – | NS(=O)(=O)c1ccc(-c2cn(C3CCOC3)c3cc[nH]c(=O)c23)cc1 (stereo not shown) [Example 18, 4-(4-oxo-1-(tetrahydrofuran-3-yl)-4,5-dihydro-1H-pyrrolo[3,2-c]pyridin-3-yl)benzenesulfonamide]
27 | 99 | 97 | – | – | – | C[C@H]1CCC[C@H]1n1cc(-c2ccc(S(N)(=O)=O)cc2)c2c(=O)[nH]ccc21 (relative stereo) [Example 71, 4-(1-(cis-2-methylcyclopentyl)-4-oxo-4,5-dihydro-1H-pyrrolo[3,2-c]pyridin-3-yl)benzenesulfonamide]
28 | 45 | 83 | – | – | – | COC(=O)c1c[nH]c(=O)c2c(-c3csc(C#N)c3)cn(C3CCCC3)c12 [Example 73, methyl 3-(5-cyano-3-thienyl)-1-cyclopentyl-4-oxo-4,5-dihydro-1H-pyrrolo[3,2-c]pyridine-7-carboxylate]
29 | 67 | 94 | – | – | – | Cc1ccccc1-c1cn(-c2csc(C(N)=O)c2)c2c(=O)[nH]cc(C#N)c12 [Example 102, 4-(4-cyano-3-(2-methylphenyl)-7-oxo-6,7-dihydro-1H-pyrrolo[2,3-c]pyridin-1-yl)thiophene-2-carboxamide]

Reference: US9371320B2, “Heterocyclic compound” (TAKEDA PHARMACEUTICAL COMPANY LIMITED, priority 2012, dated 2016)
